Data as given in patent US20130046025A1, “COMPOSITION WITH LOW SKIN IRRITATION FOR TRANSDERMAL DELIVERY OF TOLTERODINE” (SK Chemicals Co., Ltd., priority 2010, published 2013).

Test system: forearm skin of a test subject
Assay: Skin irritation test of patches (primary skin irritation index)
Format: in vivo
Details: for Effect on relief of skin irritation caused by tolterodine, result in words: conclusion from Table 4, essential oil in tolterodine patch
Method: Each of the patches produced in Production Examples 1 and 2 was cut to a size of 1 cm×1 cm. The specimen was attached to the forearm skin of a test subject and fixed with a medical tape to prevent detachment during the test period. After 24 hr, the medical tape and the patch were removed with care. After 1 hr, the primary skin irritation index of the patch for skin irritations including erythema and edema was determined with the help of an expert.
Skin irritation tests were conducted in the same manner as in Test Example 1.

Structure (SMILES) | Effect on relief of skin irritation caused by tolterodine, result in words | Skin irritation (erythema, edema), result in words (conclusion from Table 2)
C=CCc1ccc(O)c(OC)c1 [eugenol] | outstanding effects on skin irritation relief | –
Cc1ccc(O)c([C@H](CCN(C(C)C)C(C)C)c2ccccc2)c1 [tolterodine, 2-[(1R)-3-(diisopropylamino)-1-phenylpropyl)-4-methylphenol] | – | causing skin irritations
CC(C)=CCC[C@](C)(O)C1CC=C(C)CC1 (stereo partly drawn) [bisabolol] | outstanding effects on skin irritation relief | –
